Measurements as given in ChEMBL document CHEMBL6115028, “An Amazing 30-Year Journey around the DABO Family: A Medicinal Chemistry Lesson on a Versatile Class of Non-nucleoside HIV-1 Reverse Transcriptase Inhibitors” (J Med Chem, 2025).

Tests used:
[1] = tested on: Human immunodeficiency virus 1; test: Antiviral activity against wild type HIV-1 IIIB infected in human MT4 cells assessed as protection against virus-induced cytopathic effect incubated for 72 hrs by MTT assay; format: functional, organism-based; conditions: Human immunodeficiency virus 1, IIIB, MT4, 72 h
[2] = tested on: MT4; test: Cytotoxicity against human MT4 cells; format: functional
[3] = Selectivity index, ratio of CC50 for human MT4 cells to EC50 for antiviral activity against HIV1 infected in human MT4 cells; format: toxicity, cell-based; conditions: read-out: Ratio CC50/EC50
[4] = target: T1, Human immunodeficiency virus type 1 reverse transcriptase (Human immunodeficiency virus 1, UniProt Q72547); test: Inhibition of recombinant HIV-1 reverse transcriptase associated RNA-dependent DNA polymerase activity incubated for 30 mins by liquid scintillation method
[5] = tested on: Human immunodeficiency virus 1; test: Antiviral activity against HIV-1 infected in human MT4 cells assessed as reduction in virus-induced cytopathic effect incubated for 5 days by Cell Titer-Glo luminescent assay; format: functional, organism-based; conditions: Human immunodeficiency virus 1, MT4, 120 h
[6] = tested on: MT4; test: Cytotoxicity against human MT4 cells assessed as reduction in cell viability after 5 days by MTT assay; format: functional; conditions: MT4, 120 h, time 5 day
[7] = tested on: Human immunodeficiency virus 1; test: Antiviral activity against wild type HIV-1 IIIB harboring Y181C/K103N double mutant infected in human MT4 cells assessed as reduction in cytopathic effect measured after 4 days by MTT assay; format: functional, organism-based; conditions: Human immunodeficiency virus 1, IIIB, MT4, 96 h
[8] = tested on: Human immunodeficiency virus 1; test: Antiviral activity against […] infected in human MT4 cells assessed as reduction in cytopathic effect measured after 4 days by MTT assay; format: functional, organism-based; conditions: Human immunodeficiency virus 1, IIIB, MT4, 96 h
[9] = tested on: MT4; test: Cytotoxicity against human MT4 cells assessed as reduction in cell viability incubated for 4 days by MTT assay; format: functional; conditions: MT4, 96 h, time 4 day
[10] = tested on: Human immunodeficiency virus 1; test: Antiviral activity against wild type HIV-1 IIIB infected in human MT4 cells assessed as reduction in cytopathic effect measured after 4 days by MTT assay; format: functional, organism-based; conditions: Human immunodeficiency virus 1, IIIB, MT4, 96 h
[11] = tested on: Human immunodeficiency virus 1; test: Antiviral activity against wild type HIV-1 NL4-3 infected in human MT4 cells assessed as reduction in viral replication measured for 72 hrs by ELISA analysis; format: functional, organism-based; conditions: Human immunodeficiency virus 1, NL4-3, MT4, 72 h
[12] = tested on: Human immunodeficiency virus 1; test: Antiviral activity against HIV-1 NL4-3 harboring infected Y188L mutant infected in human MT4 cells assessed as reduction in viral replication; format: functional, organism-based; conditions: Human immunodeficiency virus 1, NL4-3, MT4
[13] = tested on: Human immunodeficiency virus 1; test: Antiviral activity against HIV-1 NL4-3 harboring infected Y181C mutant infected in human MT4 cells assessed as reduction in viral replication; format: functional, organism-based; conditions: Human immunodeficiency virus 1, NL4-3, MT4
[14] = tested on: Human immunodeficiency virus 1; test: Antiviral activity against HIV-1 NL4-3 harboring infected K103N mutant infected in human MT4 cells assessed as reduction in viral replication; format: functional, organism-based; conditions: Human immunodeficiency virus 1, NL4-3, MT4
[15] = tested on: MT2; test: Cytotoxicity against human MT2 cells; format: functional
[16] = tested on: MT4; test: Cytotoxicity against human MT4 cells assessed as reduction in cell growth incubated for 5 days by MTT assay; format: functional; conditions: MT4, 120 h, time 5 day
[17] = tested on: Human immunodeficiency virus 1; test: Antiviral activity against HIV-1 3B infected in human MT4 cells assessed as reduction in viral replication incubated for 5 days by MTT assay; format: functional, organism-based; conditions: Human immunodeficiency virus 1, 3B, MT4, 120 h
[18] = tested on: Human immunodeficiency virus 1; test: Antiviral activity against HIV-1 harboring RT K103N mutant infected in human MT4 cells assessed as protection against virus-induced cytopathic effect measured for 5 days by MTT assay; format: functional, organism-based; conditions: Human immunodeficiency virus 1, MT4, 120 h
[19] = tested on: Human immunodeficiency virus 1; test: Antiviral activity against HIV-1 infected in human MT4 cells; format: functional, organism-based; conditions: Human immunodeficiency virus 1, MT4
[20] = tested on: Human immunodeficiency virus 1; test: Antiviral activity against wild type HIV-1 NL4-3 infected in human MT4 cells assessed as reduction in viral replication; format: functional, organism-based; conditions: Human immunodeficiency virus 1, NL4-3, MT4; read-out: EC50
[21] = target: T2, Reverse transcriptase (Human immunodeficiency virus 1, UniProt Q9WKE8, K103N); test: Inhibition of HIV-1 Reverse transcriptase K103N mutant
[22] = target: T1, Human immunodeficiency virus type 1 reverse transcriptase; test: Inhibition of wild type HIV-1 Reverse transcriptase
[23] = target: T2, Reverse transcriptase; test: Binding affinity to HIV-1 reverse transcriptase K103N mutant assessed as inhibition constant

Cc1cc(C)cc(Cc2nc(Sc3cccnc3)[nH]c(=O)c2C)c1
EC50 [1]: 1.6 µM
CC50 [2]: 55 µM

CCC(C)Oc1nc(Sc2ccccc2)nc(N)c1C (configuration not stated)
selectivity ratio [3]: > 45
IC50 [4]: 28 µM
EC50 [5]: 8 µM
CC50 [6]: > 364 µM

C=C(c1nc(N(C)C)[nH]c(=O)c1C)c1c(F)cccc1F
EC50 [7]: > 100 µM
EC50 [8]: 44 µM
CC50 [9]: > 100 µM
EC50 [10]: 0.2 µM

CSc1nc(N)c(C)c(C(=O)c2ccc(F)cc2)n1
EC50 [11]: 0.58 µM
EC50 [12]: 0.21 µM
EC50 [13]: 0.21 µM
EC50 [14]: 5.95 µM

CSc1nc(C(C)C)c(CC2CCCCC2)n1COCc1ccccc1
CC50 [15]: 31 µM

Cc1c(C(Br)c2c(F)cccc2F)nc(N(C)C)[nH]c1=O (configuration not stated)
EC50 [7]: 43 µM
EC50 [8]: 43 µM
CC50 [9]: 43 µM
EC50 [10]: 0.2 µM

CCC(C)Sc1nc(Cc2cc(C)cc(C)c2)c(C)c(=O)[nH]1 (configuration not stated)
CC50 [16]: 86 µM
EC50 [17]: 0.6 µM

O=C1c2ccccc2C(=O)N1CCSc1nc(Cc2c(F)cccc2F)cc(=O)[nH]1
EC50 [18]: 100 µM
CC50 [2]: > 100 µM

Cc1c(C2(c3c(F)cccc3F)CC2)nc(SC2CCCC2)[nH]c1=O
EC50 [19]: 0.005 µM
selectivity ratio [3]: 2660
CC50 [2]: 14 µM

Cc1cc(=O)[nH]c(SCCN2C(=O)c3ccccc3C2=O)n1
EC50 [18]: 1.9 µM
CC50 [2]: 117 µM

CCc1nc(SC)n(COCc2ccccc2)c1CC1CCCCC1
CC50 [15]: 25 µM

CCC(C)Sc1nc(Cc2cc(C)cc(C)c2)c(I)c(=O)[nH]1 (configuration not stated)
CC50 [16]: 144 µM
EC50 [17]: 4.3 µM

CCC(C)Oc1nc(Cc2cc(C)cc(C)c2)c(C)c(=O)[nH]1 (configuration not stated)
selectivity ratio [3]: > 416
IC50 [4]: 2 µM
EC50 [5]: 0.8 µM
CC50 [6]: > 333 µM

Cc1c(C(F)c2c(F)cccc2F)nc(N(C)C)[nH]c1=O (configuration not stated)
EC50 [7]: > 100 µM
EC50 [8]: 2.8 µM
CC50 [9]: > 100 µM
EC50 [10]: 0.02 µM

CCOCn1c(SC)nc(C(C)C)c1CC1CCCCC1
CC50 [15]: 39 µM

CSc1nc(C(C)C)c(Cc2ccccc2)n1COCc1ccccc1
CC50 [15]: 29 µM

COc1ccc(C2CC2CN(C)c2nc(C(C)c3c(F)cccc3F)cc(=O)[nH]2)cc1 (configuration not stated)
EC50 [20]: 0.003 µM
IC50 [21]: 0.985 µM
EC50 [12]: 2.95 µM
EC50 [13]: > 5 µM
EC50 [14]: 0.07 µM

Cc1cc(C)cc(Cc2nc(Sc3cccc4ccccc34)[nH]c(=O)c2C)c1
EC50 [1]: 1.6 µM
CC50 [2]: > 100 µM

Cc1cccc(Cc2cc(=O)[nH]c(OC3CCCCC3)n2)c1
selectivity ratio [3]: > 418
IC50 [4]: 1.8 µM
EC50 [5]: 0.8 µM
CC50 [6]: > 335 µM

CCCSc1nc(C2(c3c(F)cccc3F)CC2)c(C)c(=O)[nH]1
EC50 [19]: 0.004 µM
selectivity ratio [3]: 3000
CC50 [2]: 12 µM

COc1ccc(Cn2cc(CSc3nc(Cc4c(Cl)cccc4Cl)c(C)c(=O)[nH]3)nn2)cc1
CC50 [2]: 29 µM
IC50 [22]: 4.56 µM

CC(c1cc(=O)[nH]c(N(C)C)n1)c1c(F)cccc1Cl (configuration not stated)
EC50 [11]: 0.007 µM
Ki [23]: 1 µM

Cc1c(C(O)c2c(F)cccc2F)nc(N(C)C)[nH]c1=O (configuration not stated)
EC50 [7]: > 50 µM
EC50 [8]: > 50 µM
CC50 [9]: 50 µM
EC50 [10]: 1 µM

Cc1c(C(=O)c2c(F)cccc2F)nc(N(C)C)[nH]c1=O
EC50 [7]: > 100 µM
EC50 [8]: 94 µM
CC50 [9]: > 100 µM
EC50 [10]: 0.3 µM
